Laboratory results as given in paper PMC12603070, “A high-throughput screening approach to discover potential colorectal cancer chemotherapeutics: repurposing drugs to identify novel disruptors of 14-3-3 proteins” (Cell Death & Disease, 2025).
Counter-ions that a name gives are not always drawn. Like-named read-outs stand apart in the source and are kept apart here. Numbered stars: 1 amine (or outer) side, 2 acyl side, 3 side chain; on linkers, the order of the positions; unused ones are H or OH. Bridge positions count the residues as written; N and C are the ends. Square brackets hold non-standard residues; d marks the D form. Peptide text beside a SMILES is read from it. * marks the point of attachment. pTerphenylCO(4''-OnC5H11) = CCCCCOc1ccc(-c2ccc(-c3ccc(C(=O)*)cc3)cc2)cc1; Orn(4R-OH,5R-OH) = O=C([C@H](C[C@@H](O)[C@@H](O)N[*:3])N[*:1])[*:2]; hTyr(3S-OH,4S-OH) = N[C@H](C(=O)O)[C@H](O)[C@@H](O)c1ccc(O)cc1; Pro(3S-OH,4S-Me) = C[C@H]1CN[C@H](C(=O)O)[C@H]1O; Hyp = O=C(O)[C@@H]1C[C@@H](O)CN1

Tests used:
[1] = biological target: T1, 14-3-3ζ:BAD-112-136F interactions (Homo sapiens, UniProt P63104); test: BRET sensor screen for disruption of 14-3-3ζ-Rluc8:BAD-112-136F-mCitrine in living NIH-3T3 cells; assay type: cell-based, murine; set-up: inhibition: dose or concentration left out as unconfirmed; BRET reduction on NIH-3T3: unit not given here; conditions: for inhibition / inhibition at 20 µM: NIH3T3, 3 h, read-out: BRET reduction on NIH-3T3
T1 construct: expressed in transfected cells; host or cells: NIH-3T3 fibroblasts, bi-directional pBI-CMV1 plasmid
T1 sequence (P63104 1-245): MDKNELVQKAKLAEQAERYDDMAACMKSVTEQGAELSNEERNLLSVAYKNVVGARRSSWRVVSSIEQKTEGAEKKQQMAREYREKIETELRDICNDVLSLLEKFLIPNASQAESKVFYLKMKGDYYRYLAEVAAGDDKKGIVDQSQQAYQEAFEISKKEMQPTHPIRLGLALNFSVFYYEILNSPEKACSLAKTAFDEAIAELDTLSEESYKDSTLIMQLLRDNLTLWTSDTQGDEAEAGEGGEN
Protocol: The Z’-score, which evaluates the robustness of an HTS assay readout, was calculated according to standard protocols. For the HTS, 384-well plates were coated with 100 μg/mL poly-L-ornithine (Sigma, Missouri, United States; #P3655) overnight at 37 °C, followed by rinsing with sterilized water. NIH-3T3 cells were transfected with the BRET sensor two days prior to experimentation, followed by replating onto the pre-coated 384-well plates at a density of 20,000 cells/well. After 24 h of incubation at 37 °C, growth media was replaced by Krebs buffer (pH 7.4).

NIH-3T3 cells = test: Hoechst/propidium iodide cell death assay in NIH-3T3; assay type: cell-based; conditions: for cytotoxicity at 20 µM: Mus musculus, NIH3T3, 24 h, read-out: Percentage of cell death % 24h NIH3t3
Description: (§1) A high-content imaging system (PerkinElmer; Operetta CLS), was used to quantify cell death and apoptosis by calculating the number of propidium iodide-positive cells relative to Hoechst-positive cells, and the number of Annexin V-positive cells relative to Hoechst-positive cells, respectively.

Caco-2 cells = assay type: cell-based; conditions: for Percentage of cell death % 24h CACO-2: 20 µM; for Percentage of cell death % 48h, Caco-2: 20 μM
Description: as §1

HT-29 cells = test: Hoechst/propidium iodide cell death assay in HT-29; assay type: cell-based, human; conditions: for cytotoxicity at 20 µM: Homo sapiens; for %Cell death HT-29: time not given
Description: as §1

[2] = NIH-3T3 cells, hits from the primary screen
[3] = NIH-3T3 expressing BRET sensor, 20 µM, 3 h
[4] = HT-29, 24 h, 20 µM, 24 h, read-out: Percentage of cell death % 24h HT-29
[5] = HT-29, 48 h, HT-29, 48h, 20 μM, read-out: Percentage of cell death % 48h, HT-29
[6] = HT-29, 24 h, read-out: Percentage of cell death % 24h HT-29
[7] = HT-29, 48 h, read-out: Percentage of cell death % 48h, HT-29

| Compound | inhibition [1, 2] | inhibition at 20 µM [1, 3] | BRET reduction on NIH-3T3 [1, 3] | cytotoxicity at 20 µM (NIH-3T3 cells; 20 µM, 24 h) | Percentage of cell death % 48h, NIH3T3 (NIH-3T3 cells) | Percentage of cell death % 24h CACO-2 (Caco-2 cells) | Percentage of cell death % 48h, Caco-2 (Caco-2 cells) | cytotoxicity at 20 µM (HT-29 cells; [4]) | cytotoxicity at 20 µM (HT-29 cells; [5]) | inhibition at 20 µM [1] | BRET reduction on NIH-3T3 [1, 2] | cytotoxicity at 20 µM (NIH-3T3 cells) | cytotoxicity at 20 µM (HT-29 cells; [6]) | cytotoxicity at 20 µM (HT-29 cells; [7]) | %Cell death Caco-2 (Caco-2 cells; time not given, text says 48 h) | %Cell death HT-29 (HT-29 cells; HT-29) | Percentage of cell death % 24h NIH3t3 (NIH-3T3 cells; 20 µM, 24 h) | %Cell death Caco-2 (Caco-2 cells) | Percentage of cell death % 24h HT-29 (HT-29 cells; 20 µM, 24 h) | Percentage of cell death % 48h, HT-29 (HT-29 cells; HT-29, 48h, 20 μM) |
| --- | --- | --- | --- | --- | --- | --- | --- | --- | --- | --- | --- | --- | --- | --- | --- | --- | --- | --- | --- | --- |
| Cn1ncc(Cl)c1-c1cc(C(=O)N[C@H](CN)Cc2cccc(F)c2)sc1Cl [Afuresertib] | 27.8% | 27.8% | – | 57.7% | 38.6266% | 23.3726% | 43.2801% | 3.99% | 37.5% | – | – | – | – | – | – | – | – | – | – | – |
| CCCCCOc1ccc(-c2ccc(-c3ccc(C(=O)N[C@H]4C[C@@H](O)[C@@H](O)NC(=O)[C@@H]5[C@@H](O)[C@@H](C)CN5C(=O)[C@H]([C@@H](C)O)NC(=O)[C@H]([C@H](O)[C@@H](O)c5ccc(O)cc5)NC(=O)[C@@H]5C[C@@H](O)CN5C(=O)[C@H]([C@@H](C)O)NC4=O)cc3)cc2)cc1 [Anidulafungin] ({pTerphenylCO(4''-OnC5H11)}-[Orn(4R-OH,5R-OH)]T[Hyp][hTyr(3S-OH,4S-OH)]T[Pro(3S-OH,4S-Me)]; lactam 1-C) | – | – | – | – | 12.0742% | 1.705% | 1.424% | – | – | 27% | 27.0241 | 33.6% | 4.73% | 7.05% | – | – | – | – | – | – |
| CC1=C(C(=O)OC(C)C)C(c2cccc([N+](=O)[O-])c2)C(C(=O)OC2CN(C(c3ccccc3)c3ccccc3)C2)=C(N)N1 (stereo not shown) [Azelnidipine] | 40.2% | 40.2% | – | 75.6% | 71.6636% | 9.563% | 13.6799% | 66.4% | 91.6% | – | – | – | – | – | 13.7% | 91.6% | – | – | – | – |
| CCc1cc(/C(C)=N/OCc2ccc(C3CCCCC3)c(C(F)(F)F)c2)ccc1CN1CC(C(=O)O)C1 [BAF312 (Siponimod), Siponimod] | 28.7% | 28.7% | – | 0.738% | 0.7911% | 2.6196% | 2.567% | 0.683% | 1.58% | – | – | – | – | – | – | – | – | – | – | – |
| COC(=O)[C@]12CCC(C)(C)C[C@H]1[C@H]1C(=O)C=C3[C@@]4(C)C=C(C#N)C(=O)C(C)(C)[C@@H]4CC[C@@]3(C)[C@]1(C)CC2 [Bardoxolone methyl] | – | – | 39.4225 | – | 72.1638% | – | – | – | – | – | 39.4225 | – | – | – | – | 67.5% | 87.0027% | 19.2% | 43.1592% | 67.5309% |
| CCCCCCCCCCCCCCCC[N+](C)(C)C [Cetrimonium Bromide (CTAB), Cetrimonium Bromide] | – | – | – | – | 66.4515% | 19.5542% | 50.4821% | – | – | 35.4% | 35.3912 | 73.5% | 11.5% | 55.4% | – | – | – | – | – | – |
| CCCCCCCCCCCCCCCC[n+]1ccccc1 [Cetylpyridinium Chloride] | – | – | – | – | 74.7179% | 22.2457% | 63.7687% | – | – | – | – | 81.9% | 27.2% | 76.9% | – | – | – | – | – | – |
| CO[C@H]1C[C@H](O[C@H]2[C@H](C)O[C@@H](O[C@@H]3/C(C)=C/C[C@@H]4C[C@@H](C[C@]5(C=C[C@H](C)[C@@H](C6CCCCC6)O5)O4)OC(=O)[C@@H]4C=C(C)[C@@H](O)[C@H]5OC/C(=C\C=C\[C@@H]3C)[C@]54O)C[C@@H]2OC)O[C@@H](C)[C@@H]1O [Doramectin] | – | – | 36.2699 | – | 58.749% | – | – | – | – | – | 36.2699 | – | – | – | – | 51.6% | 51.7189% | 32.3% | 11.0069% | 51.5756% |
| Clc1ccc(CO/N=C(\Cn2ccnc2)c2ccc(Cl)cc2Cl)c(Cl)c1.O=[N+]([O-])O [Oxiconazole (nitrate)] | – | – | – | – | 4.864% | 8.851% | 7.056% | – | – | – | – | – | – | – | – | – | 5.3556% | – | 3.543% | 5.935% |

Second part, led by results:

| inhibition [1, 2] | inhibition at 20 µM [1, 3] | BRET reduction on NIH-3T3 [1, 3] | Compound | cytotoxicity at 20 µM (NIH-3T3 cells; 20 µM, 24 h) | Percentage of cell death % 48h, NIH3T3 (NIH-3T3 cells) | Percentage of cell death % 24h CACO-2 (Caco-2 cells) | Percentage of cell death % 48h, Caco-2 (Caco-2 cells) | cytotoxicity at 20 µM (HT-29 cells; [4]) | cytotoxicity at 20 µM (HT-29 cells; [5]) | inhibition at 20 µM [1] | BRET reduction on NIH-3T3 [1, 2] | cytotoxicity at 20 µM (NIH-3T3 cells) | cytotoxicity at 20 µM (HT-29 cells; [6]) | cytotoxicity at 20 µM (HT-29 cells; [7]) | %Cell death Caco-2 (Caco-2 cells; time not given, text says 48 h) | %Cell death HT-29 (HT-29 cells; HT-29) | Percentage of cell death % 24h NIH3t3 (NIH-3T3 cells; 20 µM, 24 h) | %Cell death Caco-2 (Caco-2 cells) | Percentage of cell death % 24h HT-29 (HT-29 cells; 20 µM, 24 h) | Percentage of cell death % 48h, HT-29 (HT-29 cells; HT-29, 48h, 20 μM) |
| --- | --- | --- | --- | --- | --- | --- | --- | --- | --- | --- | --- | --- | --- | --- | --- | --- | --- | --- | --- | --- |
| – | – | 50.3473 | C[C@@H](NCCCc1cccc(C(F)(F)F)c1)c1cccc2ccccc12 [Cinacalcet HCl] | – | 69.2945% | 64.4357% | 76.6269% | – | – | – | 50.3473 | – | – | – | – | – | 81.0537% | – | 35.6614% | 79.6038% |
| 47.7% | 47.7% | – | C[C@@H](NCCCc1cccc(C(F)(F)F)c1)c1cccc2ccccc12 [Cinacalcet] | 75.5% | 90.5083% | 40.5775% | 49.3803% | 30% | 70.3% | – | – | – | – | – | 49.4% | 70.3% | – | – | – | – |
| 38.2% | 38.2% | – | CCN(CC)CCOc1ccc(C(=C(Cl)c2ccccc2)c2ccccc2)cc1 [Clomiphene citrate] | 10.1% | 58.221% | – | – | 1.46% | 52% | – | – | – | – | – | – | 52.0% | – | 34.7% | – | – |
| 49% | 49% | – | CCCCCCCCCCCC[N+](C)(C)CCOc1ccccc1 [Domiphen Bromide] | 81.2% | 69.1517% | 24.2566% | 80.35% | 15% | 57.1% | – | – | – | – | – | – | – | – | – | – | – |
| – | – | 49.6356 | CCCCc1oc2ccc(NS(C)(=O)=O)cc2c1C(=O)c1ccc(OCCCN(CCCC)CCCC)cc1 [Dronedarone HCl] | – | 84.99% | 77.641% | 87.4152% | – | – | – | 49.6356 | – | – | – | – | – | 85.6589% | – | 82.9811% | 91.5188% |
| 30.4% | 30.4% | – | COc1cc(C(=O)NS(=O)(=O)c2ccccc2C)ccc1Cc1cn(C)c2ccc(NC(=O)OC3CCCC3)cc12 [Zafirlukast] | 0.402% | 0.2485% | – | – | 0.343% | 0.917% | – | – | – | – | – | – | – | – | – | – | – |
| 25.5% | 25.5% | – | O=C1Cc2cc(CCN3CCN(c4nsc5ccccc45)CC3)c(Cl)cc2N1 [Ziprasidone hydrochloride monohydrate] | 1.15% | 0.2764% | – | – | 1.29% | 1.87% | – | – | – | – | – | – | – | – | – | – | – |
| – | – | 53.9832 | Sodium Aescinate | – | 15.6079% | – | – | – | – | – | 53.9832 | – | – | – | – | – | 50.0783% | – | 0.8457% | 0.6065% |
| – | – | 36.7374 | Vitamin B12 | – | 0.1179% | – | – | – | – | – | 36.7374 | – | – | – | – | – | 0.2976% | – | 0.4615% | 1.059% |
